# Read-outs that look alike come from different tables or passages of the source. Bridge positions count the residues as written; N and C are the ends. Peptide text beside a SMILES is read from it.
# Assays:
# PD-L1 antibody = test: Peptide antibody dissociation ELISA (PD-L1 antibody); format: binding; details: for pH 5.4: pH 7.2 EC 50 ratio: pH 5.4 vs pH 7.2; for pH 6.0: pH 7.2 EC 50 ratio: pH 6.0 vs pH 7.2
# Description: (§1) To begin, peptides were immobilized on neutravidin coated and blocked wells. […] After binding at 4 degrees the plates were washed extensively as before. Next the peptides were incubated with either neutral or acidic pH buffers for approximately 30 minutes and then washed again. The specifically peptide bound antibodies were detected by either anti-mouse Fc or anti-mouse kappa chain HRP conjugated antibodies using standard TMB-based chromogenic ELISA procedures. The effects of pH upon affinity were determined by standard EC50 analysis of each of the distinct pH dilution series binding curves and comparison of their respective EC50 values.
# [1] = system: anti-mouse CTLA-4 antibody (clone 9D9); test: Peptide antibody dissociation ELISA (CTLA-4 antibody); format: binding; details: for pH responsiveness: FIG. 11A-11C legend, unoptimized peptide candidates
# Description: as §1
# [2] = pH 5.4, read-out: EC50 [M] pH 5.4
# [3] = pH 6.0, read-out: EC50 [M] pH 6.0
# [4] = pH 7.2, read-out: EC50 [M] pH 7.2
Compound,EC50 (PD-L1 antibody; [2]) [M],pH 5.4: pH 7.2 EC 50 ratio (PD-L1 antibody),EC50 (PD-L1 antibody; [3]) [M],pH 6.0: pH 7.2 EC 50 ratio (PD-L1 antibody),EC50 (PD-L1 antibody; [4]) [M],EC50 [M] pH 7.2 ([1]; pH 7.2),pH responsiveness [1],EC50 [M] pH 7.2 (PD-L1 antibody; pH 7.2)
CC[C@H](C)[C@H](NC(=O)[C@H](Cc1c[nH]cn1)NC(=O)[C@H](Cc1ccc(O)cc1)NC(=O)[C@@H](NC(=O)[C@H](CO)NC(=O)[C@@H]1CCCN1C(=O)[C@H](Cc1ccc(O)cc1)NC(=O)[C@H](Cc1ccccc1)NC(=O)[C@H](CC(C)C)NC(=O)[C@@H](N)CCC(N)=O)[C@@H](C)O)C(=O)N[C@H](C(=O)N[C@@H](CC(=O)O)C(=O)O)[C@@H](C)CC [Peptide 20] (H-QLFYPSTYHIID-OH),8.4e-10,6.7,2.1e-10,1.7,1.3e-10,–,–,–
CSCC[C@H](NC(=O)CNC(=O)CN)C(=O)N[C@H]1CSSC[C@@H](C(=O)N[C@@H](CCC(N)=O)C(=O)O)NC(=O)[C@H](Cc2c[nH]c3ccccc23)NC(=O)[C@H](CC(N)=O)NC(=O)[C@H](CC(C)C)NC(=O)[C@H](CC(N)=O)NC(=O)[C@H](CO)NC(=O)[C@H](Cc2ccc(O)cc2)NC(=O)[C@H](Cc2ccccc2)NC(=O)[C@H](CC(C)C)NC(=O)[C@H](CCC(=O)O)NC(=O)[C@H](Cc2c[nH]cn2)NC1=O [Peptide 22] (H-GGMCHELFYSNLNWCQ-OH; disulfide 4-15),3.5e-10,7.8,7e-11,1.5,4.5e-11,–,–,–
CSCC[C@@H]1NC(=O)[C@H](CC(=O)O)NC(=O)[C@H](C(C)C)NC(=O)[C@@H](NC(=O)[C@H](Cc2c[nH]cn2)NC(=O)CNC(=O)CN)CSSC[C@@H](C(=O)N[C@@H](CCC(N)=O)C(=O)O)NC(=O)[C@H]([C@@H](C)O)NC(=O)[C@H](CCC(N)=O)NC(=O)[C@H](CCC(N)=O)NC(=O)[C@H](Cc2ccc(O)cc2)NC(=O)[C@H](Cc2ccccc2)NC(=O)[C@H](CC(=O)O)NC(=O)[C@H](C(C)C)NC1=O [Peptide 23] (H-GGHCVDMVDFYQQTCQ-OH; disulfide 4-15),3.9e-09,12.9,1.3e-09,4.3,3e-10,Inactive,–,–
CC(C)C[C@@H]1NC(=O)CNC(=O)[C@H](CO)NC(=O)[C@H](CCCCN)NC(=O)[C@H](CC(N)=O)NC(=O)[C@H](Cc2c[nH]cn2)NC(=O)[C@@H](NC(=O)CNC(=O)CN)CSSC[C@@H](C(=O)O)NC(=O)[C@H](Cc2ccc(O)cc2)NC(=O)[C@H](Cc2c[nH]cn2)NC(=O)[C@H](Cc2ccc(O)cc2)NC(=O)[C@H](Cc2ccccc2)NC1=O [Peptide 24] (H-GGCHNKSGLFYHYC-OH; disulfide 3-14),1.3e-09,6.6,5.6e-10,2.8,2e-10,–,–,–
CC(C)C[C@H](NC(=O)[C@H](CCC(=O)O)NC(=O)[C@H](CCC(=O)O)NC(=O)[C@H](Cc1ccc(O)cc1)NC(=O)[C@H](Cc1ccccc1)NC(=O)[C@H](Cc1ccc(O)cc1)NC(=O)[C@H](CC(C)C)NC(=O)[C@@H]1CCCN1C(=O)[C@H](CO)NC(=O)[C@@H](NC(=O)[C@@H](N)CCC(N)=O)C(C)C)C(=O)N[C@@H](C)C(=O)O [Peptide 27],–,–,9e-10,–,–,–,–,–
CC[C@H](C)[C@@H]1NC(=O)[C@H](CC(=O)O)NC(=O)[C@H](C(C)C)NC(=O)[C@H](CCC(N)=O)NC(=O)[C@@H]2CCCN2C(=O)[C@H](CCC(=O)O)NC(=O)[C@H](Cc2ccc(O)cc2)NC(=O)[C@H](Cc2ccccc2)NC(=O)[C@H]([C@@H](C)O)NC(=O)[C@H](CO)NC(=O)[C@@H](NC(=O)[C@H](CC(C)C)NC(=O)CNC(=O)CN)CSSC[C@@H](C(=O)N[C@@H](Cc2ccc(O)cc2)C(=O)O)NC1=O [Peptide 29] (H-GGLCSTFYEPQVDICY-OH; disulfide 4-15),1.5e-09,6.5,4.9e-10,2.1,2.3e-10,–,–,–
CC(C)[C@@H]1NC(=O)[C@@H](NC(=O)CNC(=O)CN)CSSC[C@@H](C(=O)O)NC(=O)[C@H](CC(=O)O)NC(=O)[C@@H]2CCCN2C(=O)[C@H](CCCNC(=N)N)NC(=O)[C@H](CCC(N)=O)NC(=O)[C@H](Cc2c[nH]cn2)NC(=O)[C@H](Cc2c[nH]cn2)NC(=O)[C@H](Cc2ccccc2)NC(=O)[C@H](Cc2ccccc2)NC(=O)[C@H](Cc2c[nH]cn2)NC1=O [Peptide 31],1.5e-09,–,3.6e-10,–,–,–,–,–
"GGADCLLHDWDSACQI [Peptide 10, control in the PD-L1 antibody test]",–,–,–,–,–,–,significant pH responsiveness,Inactive
GGCFEEHEQLVFQTHC [Peptide 5],–,–,–,–,–,–,significant pH responsiveness,–
GGCILPGQHESQAIAC [Peptide 6],–,–,–,–,–,–,significant pH responsiveness,–

# — patent US20180339043A1, “MODIFIED ANTIBODIES” (Janux Therapeutics, Inc., priority 2017, published 2018)
